US6699854B2, “Anti-cancer compounds” (Cyclacel Limited, priority 2000, dated 2004)

Legend:
[1] = target: T1, CDK2/cyclin E (Homo sapiens, UniProt P24941); experiment: CDK2/cyclin E kinase assay (GST-Rb phosphorylation); type: biochemical; conditions: Table 2, further results for CDK2/cyclin E inhibition; read-out: CDK2/cyclin E;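 further: enzyme source: His-tagged CDK2/cyclin E co-expressed in Sf9 insect cells via baculovirus, then purified by metal-chelate chromatography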
T1 construct: His; made in house; host or cells: Sf9 insect cells (baculovirus)

[2] = tested on: A549; experiment: 72-h MTT cytotoxicity assay, A549; type: cell-based, human; conditions: Homo sapiens, Table 4, additional data for cytotoxicity assay using the A549 cell line; read-out: A549
Description: Selected compounds from the above examples were subjected to a standard cellular proliferation assay using a range of different human tumour cell lines. Standard 72-h MTT (thiazolyl blue; 3-{4,5-dimethylthiazol-2-yl}-2,5-diphenyltetrazolium bromide) assays were performed (Haselsberger, K.; Peterson, D. C.; Thomas, D. G.; Darling, J. L. Anti Cancer Drugs 1996, 7, 331-8; Loveland, B. E.; Johns, T. G.; Mackay, I. R.; Vaillant, F.; Wang, Z. X.; Hertzog, P. J. Biochemistry International 1992, 27, 501-10). Human tumour cell lines were obtained from the ATCC (American Type Culture Collection, 10801 University Boulevard, Manessas, Va. 20110-2209, USA).

[3] = tested on: A549 cells; experiment: Mitotic index HitKit (Cellomix); type: cell-based, human; conditions: at a concentration of 22 nM, toxicity above this concentration
Excerpt: The effect of compound 28 on the mitotic index was studied using mitotic index HitKit (Cellomix). Vinblastine was used as control in the experiments.
Above this concentration a decrease in the number of mitotic cells is observed which correlates with a decrease in the total number of cells.

Row | IC50 [1] [µM] | Structure (SMILES) | IC50 [2] [µM] | maximum percentage of mitotic cells [3] [%]
1 | 0.7 ± 0.4 | Cc1nc(C)c(-c2ccnc(Nc3ccc(C(=O)O)cc3)n2)s1 [Compound 53, 4-{4-(2,4-Dimethyl-thiazol-5-yl)-pyrimidin-2-ylamino}-benzoic acid] | 12 ± 5 | 
2 | 0.2 | CNc1nc(C)c(-c2ccnc(Nc3cccc(C(F)(F)F)c3)n2)s1 [Compound 90, {4-(4-Methyl-2-methylamino-thiazol-5-yl)-pyrimidin-2-yl}-(3-trifluoromethyl-phenyl)-amine] | 1.8 ± 0.8 | 
3 | 0.2 | CCNc1nc(C)c(-c2ccnc(Nc3ccc(F)cc3)n2)s1 [Compound 75, {4-(2-Ethylamino-4-methyl-thiazol-5-yl)-pyrimidin-2-yl}-(4-fluoro-phenyl)-amine] | 3.2 ± 0.4 | 
4 | 0.3 | COC(=O)c1ccc(Nc2nccc(-c3sc(C)nc3C)n2)cc1 [Compound 50, 4-{4-(2,4-Dimethyl-thiazol-5-yl)-pyrimidin-2-ylamino}-benzoic acid methyl ester] | 8.8 ± 10 | 
5 | 0.2 | C=CCNc1nc(C)c(-c2ccnc(Nc3ccc(F)cc3)n2)s1 [Compound 82, {4-(2-Allylamino-4-methyl-thiazol-5-yl)-pyrimidin-2-yl}-(4-fluoro-phenyl)-amine] | 1.1 ± 0.3 | 
6 | 0.94 ± 0.49 | Cc1nc(C)c(-c2ccnc(Nc3cccc(Br)c3)n2)s1 [Compound 30, (3-Bromo-phenyl)-{4-(2,4-dimethyl-thiazol-5-yl)-pyrimidin-2-yl}-amine] | 6.4 ± 0.05 | 
7 | 0.06 | COc1ccc(Nc2nccc(-c3sc(C)nc3C)n2)cc1Cl [Compound 52, (3-Chloro-4-methoxy-phenyl)-{4-(2,4-dimethyl-thiazol-5-yl)-pyrimidin-2-yl}-amine] | 0.8 ± 0.3 | 
8 | 0.8 | CNc1nc(C)c(-c2ccnc(Nc3cccc([N+](=O)[O-])c3)n2)s1 [Compound 76, (4-{4-Methyl-2-methylamino-thiazol-5-yl)-pyrimidin-2-yl}-(3-nitro-phenyl)-amine] | 3 ± 0.9 | 
9 | 0.21 ± 0.16 | Cc1nc(C)c(-c2ccnc(Nc3ccc(O)c([N+](=O)[O-])c3)n2)s1 [Compound 45, 4-{4-(2,4-Dimethyl-thiazol-5-yl)-pyrimidin-2-ylamino}-2-nitro-phenol] | 3.3 ± 0.5 | 
10 | 1.2 | CNc1nc(C)c(-c2ccnc(Nc3ccc(C(F)(F)F)cc3)n2)s1 [Compound 89, {4-(4-Methyl-2-methylamino-thiazol-5-yl)-pyrimidin-2-yl}-(4-trifluoromethyl-phenyl)-amine] | 18 ± 11 | 
11 | 0.2 | CNc1nc(C)c(-c2ccnc(Nc3cccc(OC)c3)n2)s1 [Compound 88, (3-Methoxy-phenyl)-{4-(4-methyl-2-methylamino-thiazol-5-yl)-pyrimidin-2-yl}-amine] | 0.4 ± 0.1 | 
12 | 6.4 ± 0.1 | COc1ccccc1Nc1nccc(-c2sc(C)nc2C)n1 [Compound 37, {4-(2,4-Dimethyl-thiazol-5-yl)-pyrimidin-2-yl}-(2-methoxy-phenyl)-amine] | 25 | 
13 | 0.1 | CCOC(=O)c1ccc(Nc2nccc(-c3sc(NC)nc3C)n2)cc1Cl [Compound 74, 2-Chloro-4-{4-(4-methyl-2-methylamino-thiazol-5-yl)-pyrimidin-2-ylamino}-benzoic acid ethyl ester] | 18 ± 4 | 
14 | 0.6 | Cc1nc(C)c(-c2ccnc(Nc3ccc(O)c(Cl)c3)n2)s1 [Compound 97, 2-Chloro-4-{4-(2,4-dimethyl-thiazol-5-yl)-pyrimidin-2-ylamino}-phenol] | 4.2 ± 0.4 | 
15 | 0.06 ± 0.03 | CNc1nc(C)c(-c2ccnc(Nc3ccc(F)cc3)n2)s1 [Compound 62, (4-Fluoro-phenyl)-{4-(4-methyl-2-methylamino-thiazol-5-yl)-pyrimidin-2-yl}-amine] | 1.1 ± 0.2 | 
16 | 0.2 | Cc1nc(C)c(-c2ccnc(Nc3cccc(I)c3)n2)s1 [Compound 33, {4-(2,4-Dimethyl-thiazol-5-yl)-pyrimidin-2-yl}-(3-iodo-phenyl)-amine] | 61 ± 55 | 
17 | 0.08 | CNc1nc(C)c(-c2ccnc(Nc3ccc(Cl)cc3)n2)s1 [Compound 87, (4-Chloro-phenyl)-{4-(4-methyl-2-methylamino-thiazol-5-yl)-pyrimidin-2-yl}-amine] | 1.7 ± 0.1 | 
18 | 0.02 | Cc1nc(C)c(-c2ccnc(Nc3cccc(C#N)c3)n2)s1 [Compound 49, 3-{4-(2,4-Dimethyl-thiazol-5-yl)-pyrimidin-2-ylamino}-benzonitrile] | 2.2 ± 0.02 | 
19 | 0.2 | CNc1nc(C)c(-c2ccnc(Nc3cccc(Br)c3)n2)s1 [Compound 83, (3-Bromo-phenyl)-{4-(4-methyl-2-methylamino-thiazol-5-yl)-pyrimidin-2-yl}-amine] | 0.6 ± 0.3 | 
20 | 10 | CNc1nc(C)c(-c2ccnc(Nc3cc(F)cc(F)c3)n2)s1 [Compound 106, (3,5-Difluoro-phenyl)-{4-(4-methyl-2-methylamino-thiazol-5-yl)-pyrimidin-2-yl}-amine] | 2.8 ± 0.5 | 
21 | 0.75 | Cc1nc(C)c(-c2ccnc(Nc3ccc(C)c(Cl)c3)n2)s1 [Compound 51, (3-Chloro-4-methyl-phenyl)-{4-(2,4-dimethyl-thiazol-5-yl)-pyrimidin-2-yl}-amine] | 0.3 ± 0.3 | 
22 | 1.1 | COCCOC(=O)c1cc(Nc2nccc(-c3sc(C)nc3C)n2)ccc1F [Compound 98, 5-{4-(2,4-Dimethyl-thiazol-5-yl)-pyrimidin-2-ylamino}-2-fluoro-benzoic acid 2-methoxy-ethyl ester] | 2.8 ± 2.1 | 
23 | 0.03 | Cc1nc(C)c(-c2ccnc(Nc3ccc(C#N)cc3)n2)s1 [Compound 48, 4-{4-(2,4-Dimethyl-thiazol-5-yl)-pyrimidin-2-ylamino}-benzonitrile] | 6.7 ± 1.1 | 
24 | 0.2 | CNc1nc(C)c(-c2ccnc(Nc3ccc(O)c([N+](=O)[O-])c3)n2)s1 [Compound 73, 4-{4-(4-Methyl-2-methylamino-thiazol-5-yl)-pyrimidin-2-ylamino}-2-nitro-phenol] | 9 ± 4 | 
25 | 2 | CNc1nc(C)c(-c2ccnc(Nc3ccc(F)cc3F)n2)s1 [Compound 105, (2,4-Difluoro-phenyl)-{4-(4-methyl-2-methylamino-thiazol-5-yl)-pyrimidin-2-yl}-amine] | 0.7 ± 0.9 | 
26 |  | CC[C@]1(O)C[C@@H]2CN(CCc3c([nH]c4ccccc34)[C@@](C(=O)OC)(c3cc4c(cc3OC)N(C)[C@H]3[C@@](O)(C(=O)OC)[C@H](OC(C)=O)[C@]5(CC)C=CCN6CC[C@]43[C@@H]65)C2)C1 [Vinblastine, reference compound] |  | 31
27 | 0.4 ± 0.3 | COc1cccc(Nc2nccc(-c3sc(C)nc3C)n2)c1 [Compound 38, {4-(2,4-Dimethyl-thiazol-5-yl)-pyrimidin-2-yl}-(3-methoxy-phenyl)-amine] | 4.5 ± 1.6 | 
28 | 3 | CNc1nc(C)c(-c2ccnc(Nc3ccc(Cl)c(C(F)(F)F)c3)n2)s1 [Compound 107, (4-Chloro-3-trifluoromethyl-phenyl)-{4-(4-methyl-2-methylamino-thiazol-5-yl)-pyrimidin-2-yl}-amine] | 0.7 ± 0.2 | 
29 | 0.6 | Cc1nc(C)c(-c2ccnc(Nc3ccc(I)cc3F)n2)s1 [Compound 94, {4-(2,4-Dimethyl-thiazol-5-yl)-pyrimidin-2-yl}-(2-fluoro-4-iodo-phenyl)-amine] | 0.5 ± 0.6 | 
30 | 0.13 | CNc1nc(C)c(-c2ccnc(Nc3ccc(Br)cc3)n2)s1 [Compound 86, (4-Bromo-phenyl)-{4-(4-methyl-2-methylamino-thiazol-5-yl)-pyrimidin-2-yl}-amine] | 8 ± 6 | 
